Measurements taken from patent US20250115628A1, “FLUORINATED FLUOROPHORES” (HOWARD HUGHES MEDICAL INSTITUTE, priority 2023, published 2025).
“And” between values parts separate entries of the source, which are not always exact repeats. Equal values may be shown once. Read-outs that look alike come from different tables or passages of the source.

Key:
[1] = Quantum yield determination; format: physicochemical; conditions: 10 mM HEPES, pH 7.3
Protocol: All reported absolute fluorescence quantum yield values (Φf) were measured using a Quantaurus-QY spectrometer (model C11374, Hamamatsu). This instrument uses an integrating sphere to determine photons absorbed and emitted by a sample. Measurements were carried out using dilute samples (A<0.1), and self-absorption corrections were performed using the instrument software.^81

[2] = General UV-vis and fluorescence spectroscopy; format: physicochemical; conditions: 10 mM HEPES, pH 7.3
Protocol: Spectroscopy was performed using 1^−cm path length, 3.5^−mL quartz cuvettes or 1^−cm path length, 1.4^−mL semi-micro quartz cuvettes from Starna Cells. All measurements were taken at ambient temperature (22±2° C.). Absorption spectra were recorded on a Cary Model 100 spectrometer (Agilent), and fluorescence spectra were recorded on a Cary Eclipse fluorometer (Varian). The spectra, maximum absorption wavelength (labs), extinction coefficient at λabs (8), and maximum emission wavelength (em) were measured in 10 mM HEPES, pH 7.3 buffer (rhodamines and Malachite Green derivative 49) or 0.1 M NaOH (fluoresceins); the reported values for e are averages (n=3). Normalized spectra are shown for clarity.

[3] = Determination of KL-Z (lactone-zwitterion equilibrium constant); format: physicochemical; design: key: KL-Z = (εdw/εmax)/(1−εdw/εmax); εdw measured in 1:1 dioxane/water; conditions: 1:1 dioxane:H2O
Protocol: KL-Z was calculated using the following equation:^16, 18 KL-Z=(εdw/εmax)/(1−εdw/εmax). εdw is the extinction coefficient of the dyes in a 1:1 (v/v) dioxane/water solvent mixture; this dioxane/water mixture was chosen to give the maximum spread of KL-Z values across all classes of rhodamines.^18 εmax refers to the maximal extinction coefficients measured in different solvent mixtures empirically determined depending on dye type: 0.1% v/v trifluoroacetic acid in ethanol for 18, 20, 29, 34, 36, 70-72, 81-83, 93-95, 99-102, and 104; 0.1% v/v trifluoroacetic acid in 2,2,2^−trifluoroethanol for all other rhodamine variants. A accurate determination of low KL-Z values is complicated by the relatively poor sensitivity of absorbance measurements.

[4] = rhodamine derivatives; 10 mM HEPES, pH 7.3; data from the inventors' published work; cited from earlier work

Compound | Φf ([1]; rhodamine derivatives) | ε ([2]; rhodamine derivatives) | λabs ([2]; rhodamine derivatives) | λem ([2]; rhodamine derivatives) | KL-Z ([3]; rhodamine derivatives) | Φf ([1]; quinolinyl rhodamines) | ε ([2]; quinolinyl rhodamines) | λabs ([2]; quinolinyl rhodamines) | λem ([2]; quinolinyl rhodamines) | KL-Z ([3]; quinolinyl rhodamines) | λabs [4]
CCC1=CC2=C(c3ccccc3C(=O)O)c3cc4c(cc3C(C)(C)C2=CC1=NC)NCCC4 [compound 94, Carbo-Q-rhodamine] | 0.51 | 101,000 M^−1cm^−1 | 598 nm | 620 nm | 1.51 | – | – | – | – | – | –
CC1(C)C2=CC(=N)C=CC2=C(c2c(F)c(F)c(F)c(F)c2C(=O)O)c2ccc(N)cc21 [compound 71, 4,5,6,7^−Tetrafluoro-carborhodamine 110] | 0.53 | 96,400 M^−1cm^−1 | 575 nm | 597 nm | 0.832 | – | – | – | – | – | –
CC1CC(C)(C)Nc2cc3c(cc21)C(c1ccccc1C(=O)O)=c1cc2c(cc1[Si]3(C)C)=NC(C)(C)CC2C (centres unmarked) [compound 100, 2^−(2,2,4,8,10,10,13,13-Octamethyl-2,3,4,8,9,10,11,13-octahydrosilino[3,2^−g:5,6^−g]diquinolin-6^−ylium-6(1H)-yl)-benzoate] | – | – | – | – | – | 0.34 | 10,400 M^−1cm^−1 | 638 nm | 655 nm | 0.0220 | –
CC1=CC(C)(C)N(C)c2cc3c(cc21)C(c1c(F)c(F)c(F)c(F)c1C(=O)[O-])=c1cc2c(cc1O3)=[N+](C)C(C)(C)C=C2C [compound 11, 2,3,4,5^−Tetrafluoro-6^−(1,2,2,4,8,10,10,11^−octamethyl-1,2,10,11-tetrahydropyrano[3,2^−g:5,6^−g]diquinolin-13^−ium-6^−yl)benzoate] | – | – | – | – | – | 0.68 | 121,000 M^−1cm^−1 | 610 nm | 630 nm | 7.88 | –
O=C([O-])c1c(F)c(F)c(F)c(F)c1-c1c2cc3c(cc2[o+]c2cc4c(cc12)CCCN4)NCCC3 [compound 14, 4,5,6,7^−Tetrafluoro-Q-rhodamine] | 0.80 | 118,000 M^−1cm^−1 | 558 nm | 576 nm | 8.57 | – | – | – | – | – | –
[2H]C1([2H])N(c2ccc3c(c2)[Si](C)(C)C2=CC(=[N+]4C([2H])([2H])C([2H])([2H])C([2H])([2H])C4([2H])[2H])C=CC2=C3c2c(F)c(F)c(F)c(F)c2C(=O)[O-])C([2H])([2H])C([2H])([2H])C1([2H])[2H] [compound 25, JFX673] | 0.42 | 156,000 M^−1cm^−1 | 673 nm | 690 nm | 1.56 | – | – | – | – | – | –
CC1=CC(C)(C)Nc2cc3c(cc21)C(c1ccccc1C(=O)O)=c1cc2c(cc1[Si]3(C)C)=NC(C)(C)C=C2C [compound 102, 2^−(2,2,4,8,10,10,13,13-Octamethyl-2,10,11,13-tetrahydrosilino[3,2^−g:5,6^−g]diquinolin-6^−ylium-6(1H)-yl)-benzoate] | – | – | – | – | – | – | 4,800 M^−1cm^−1 | 686 nm | 711 nm | 0.0143 | –
CN1CCc2cc3c(cc21)[Si](C)(C)c1cc2c(cc1=C3c1c(F)c(F)c(F)c(F)c1C(=O)[O-])CC[N+]=2C [compound 108, SiRF712] | 0.09 | 98,800 M^−1cm^−1 | 712 nm | 735 nm | 1.97 | – | – | – | – | – | –
CC1=CC(C)(C)Nc2cc3[o+]c4cc5c(cc4c(-c4ccccc4C(=O)[O-])c3cc21)C(C)=CC(C)(C)N5 [compound 101, 2^−(2,2,4,8,10,10^−Hexamethyl-1,2,10,11^−tetrahydropyrano[3,2-g:5,6^−g′]diquinolin-13^−ium-6^−yl)benzoate] | – | – | – | – | – | 0.68 | 94,100 M^−1cm^−1 | 573 nm | 595 nm | 5.14 | –
CCC1=CC2=C(c3c(F)c(F)c(F)c(F)c3C(=O)O)c3cc4c(cc3C(C)(C)C2=CC1=NC)NCCC4 [compound 47, 4,5,6,7^−Tetrafluoro-carbo-Q-rhodamine] | 0.37 | 124,000 M^−1cm^−1 | 621 nm | 638 nm | 10.8 | – | – | – | – | – | –
CCc1cc2c(c3c1=[N+](C)CCC3)C(C)(C)c1c(cc3c4c1CCCN4CCC3)C=2c1c(F)c(F)c(F)c(F)c1C(=O)[O-] [compound 57, JF660] | 0.54 | 148,000 M^−1cm^−1 | 660 nm | 673 nm | 7.55 | – | – | – | – | – | –
CC1=CC(C)(C)N(C)c2cc3c(cc21)C(c1c(F)c(F)c(F)c(F)c1C(=O)[O-])=c1cc2c(cc1[Si]3(C)C)=[N+](C)C(C)(C)C=C2C [compound 38, 2^−(1,2,2,4,8,10,10,11,13,13^−Decamethyl-2,10,11,13-tetrahydrosilino[3,2^−g:5,6^−g]diquinolin-6^−ylium-6(1H)-yl)-3,4,5,6^−tetrafluorobenzoate] | – | – | – | – | – | – | 5,700 M^−1cm^−1 | 754 nm | 774 nm | 0.3251 | –
O=C([O-])c1c(F)c(F)c(F)c(F)c1C1=c2cc3c4c(c2Oc2c1cc1c5c2CCCN5CCC1)CCC[N+]=4CCC3 [compound 16, 4,5,6,7^−Tetrafluoro-rhodamine 101] | 0.67 | 110,000 M^−1cm^−1 | 597 nm | 616 nm | 13.4 | – | – | – | – | – | –
CC1CC(C)(C)Nc2cc3c(cc21)C(c1c(F)c(F)c(F)c(F)c1C(=O)O)=c1cc2c(cc1O3)=NC(C)(C)CC2C (mixture of isomers) [compound 18, JF563] | – | – | – | – | – | 0.73 | 125,000 M^−1cm^−1 | 563 nm | 581 nm | 15.3 | –
CCc1cc2c(c3c1=[N+](C)CCC3)[Si](C)(C)c1c(cc3c4c1CCCN4CCC3)C=2c1c(F)c(F)c(F)c(F)c1C(=O)[O-] [compound 31, JF698] | 0.28 | 147,000 M^−1cm^−1 | 698 nm | 712 nm | – | – | – | – | – | – | –
N=c1ccc2c(-c3c(F)c(F)c(F)c(F)c3C(=O)O)c3ccc(N)cc3oc-2c1 [compound 70, 4,5,6,7^−Tetrafluoro-rhodamine 110] | 0.64 | 84,500 M^−1cm^−1 | 516 nm | 536 nm | 9.81 | – | – | – | – | – | –
CCC1=CC2=C(c3c(F)c(F)c(F)c(F)c3C(=O)O)c3cc4c(cc3[Si](C)(C)C2=CC1=NC)NCCC4 [compound 29, 4,5,6,7^−Tetrafluoro-Si-Q-rhodamine] | 0.25 | 124,000 M^−1cm^−1 | 659 nm and 689 nm | 675 nm | 2.39 | – | – | – | – | – | –
CC1=CC(C)(C)Nc2cc3c(cc21)C(c1c(F)c(F)c(F)c(F)c1C(=O)O)=c1cc2c(cc1[Si]3(C)C)=NC(C)(C)C=C2C [compound 36, 2,3,4,5^−Tetrafluoro-6^−(2,2,4,8,10,10,13,13^−octamethyl-2,10,11,13-tetrahydrosilino[3,2^−g:5,6^−g]diquinolin-6^−ylium-6(1H)-yl)benzoate] | – | – | – | – | – | – | 85,900 M^−1cm^−1 | 713 nm | 742 nm | 1.09 | –
CC1=CC(C)(C)Nc2cc3[o+]c4cc5c(cc4c(-c4c(F)c(F)c(F)c(F)c4C(=O)[O-])c3cc21)C(C)=CC(C)(C)N5 [compound 20, 2,3,4,5^−Tetrafluoro-6^−(2,2,4,8,10,10^−hexamethyl-1,2,10,11-tetrahydropyrano[3,2^−g:5,6^−g]diquinolin-13^−ium-6^−yl)benzoate] | – | – | – | – | – | 0.64 | 117,000 M^−1cm^−1 | 596 nm | 614 nm | 7.65 | –
C[Si]1(C)C2=CC(=N)C=CC2=C(c2c(F)c(F)c(F)c(F)c2C(=O)O)c2ccc(N)cc21 [compound 72, 4,5,6,7^−Tetrafluoro-Si-rhodamine 110] | 0.42 | 77,800 M^−1cm^−1 | 611 nm | 627 nm | 0.0195 | – | – | – | – | – | –
CC1=CC(C)(C)N(C)c2cc3c(cc21)C(c1ccccc1C(=O)[O-])=c1cc2c(cc1[Si]3(C)C)=[N+](C)C(C)(C)C=C2C [compound 104, 2^−(1,2,2,4,8,10,10,11,13,13^−Decamethyl-2,10,11,13-tetrahydrosilino[3,2^−g:5,6^−g′]diquinolin-6^−ylium-6(1H)-yl)-benzoate] | – | – | – | – | – | – | 1,200 M^−1cm^−1 | 720 nm | 740 nm | 0.0045 | –
Si-Q-rhodamine [compound 95] | – | – | – | – | – | – | – | – | – | – | 637 nm
C=C/C=C(C=C)/[N+](C)=C1\C=CC2=C(c3c(F)c(F)c(F)c(F)c3C(=O)[O-])c3ccc(N(C)c4ccccc4)cc3C(C)(C)C2=C1 [compound 65, JQ645] | – | 2,700 M^−1cm^−1 | 645 nm | – | 0.344 | – | – | – | – | – | –
